Earlier results, collected in patent US20090030403A1, “Methods and Systems for Attenuating the Tolerance Response to a Drug” (priority 2007, published 2009).
Like-named read-outs stand apart in the source and are kept apart here.

How the values were obtained:
[1] = not given; remark: listed apart in the source
[2] = not given; remark: listed apart in the source
[3] = not given; remark: listed apart in the source
[4] = tested on: maximal electroshock seizures; details: compared with ethosuximide
sodium channels = details: in vitro
T-type Ca^2+ currents = details: in vitro
[5] = tested on: GABA/benzodiazepine receptor ionophore complex; details: in vitro
[6] = tested on: cultured mouse spinal cord neurons; details: 10-30 μg/mL
rat hippocampal slices = details: 10-30 μg/mL
[7] = tested on: dopaminergic and serotonergic neurotransmission; details: in vivo microdialysis
partial seizures = details: adjunctive therapy, partial seizures in adults
[8] = system responsible for the drug's metabolism
[9] = system removing the drug or its metabolites

Compound	Half life (in vivo)	Metabolism [8]	Excretion [9]	Bioavailability (in vivo)	further results
CC(=O)Nc1nnc(S(N)(=O)=O)s1 [Acetazolamide]	3 to 9 h	–	–	–	–
NC(=O)N1c2ccccc2C=Cc2ccccc21 [Carbamazepine]	25 to 65 h	hepatic CYP3A4 to active epoxide form	–	–	Excreted unchanged (in urine where stated): 2-3% excreted unchanged in urine
CN1C(=O)CC(=O)N(c2ccccc2)c2cc(Cl)ccc21 [Clobazam]	18 h	Hepatic	Renal	–	–
O=C1CN=C(c2ccccc2Cl)c2cc([N+](=O)[O-])ccc2N1 [Clonazepam]	30 to 40 h	–	–	0.9	Excretion (in vivo): Renal; Metabolism (in vivo): Hepatic CYP3A4
O=C(O)C1N=C(c2ccccc2)c2cc(Cl)ccc2NC1=O (centres unmarked) [Clorazepate]	36 to 100 h	Hepatic	Renal	0.91	–
CN1C(=O)CN=C(c2ccccc2)c2cc(Cl)ccc21 [Diazepam]	–	–	–	–	Time to Clinical Onset ([1]; Rectal): 5 to 15 min
CCC1(C)CC(=O)NC1=O (centres unmarked) [Ethosuximide]	53 h	Hepatic (CYP3A4, CYP2E1)	Renal (20%)	93%[1]	Plasma concentration of the drug during long term therapy ([2]; per daily dose of 1 mg/kg): about 2 μg/ml
CCN1C(=O)NC(c2ccccc2)C1=O (centres unmarked) [Ethotoin]	3 to 9 h	–	–	–	–
CCOc1ccc2nc(S(N)(=O)=O)sc2c1 [Ethoxzolamide]	2.5 to 5.5 h	–	–	–	Protein binding [3]: ~89%
NC(=O)OCC(COC(N)=O)c1ccccc1 [Felbamate]	20 to 23 h	Hepatic	–	>90%	–
O=C1NC(c2ccccc2)(c2ccccc2)C(=O)N1COP(=O)(O)O [Fosphenytoin]	–	–	–	–	Half life (to convert to phenytoin): 15 minutes to convert to phenytoin
NCC1(CC(=O)O)CCCCC1 [Gabapentin]	5 to 7 h	not appreciably metabolized	–	60% for 0.9 g daily to 27% for 4.8 g daily dose	Bioavailability (absorption in words) (in vivo): Rapid, in part by saturable carrier-mediated L-; Excretion (in vivo): Renal; Food increases absorption by (in vivo): Food increases absorption by 14%
Nc1nnc(-c2cccc(Cl)c2Cl)c(N)n1 [Lamotrigine]	–	Hepatic	Renal	–	Half life (healthy adults): 24 to 34 h (healthy adults)
CC[C@@H](C(N)=O)N1CCCC1=O [Levetiracetam, α-ethyl-2-oxo-1-pyrrolidineacetamide]	6 to 8 h	Renal	Renal	–	–
O=C1Nc2ccc(Cl)cc2C(c2ccccc2Cl)=NC1O (centres unmarked) [Lorazepam]	10 to 20 h	Hepatic	Renal	–	–
CCC1(c2ccccc2)NC(=O)N(C)C1=O (centres unmarked) [Mephenytoin]	7 h	–	–	–	–
CCCC(C)(COC(N)=O)COC(N)=O [Meprobamate]	10 h	Hepatic	Renal	–	–
CN1C(=O)CC(C)(c2ccccc2)C1=O (centres unmarked) [Mesuximide]	1.4 to 2.6 h (mesuximide)	Hepatic (demethylation and glucuronidation)	Renal	–	Activity against maximal electroshock seizures [4]: more active against maximal electroshock seizures; Half life (active metabolite): 28 to 38 h (active metabolite)

Compound	Half life (in vivo)	Metabolism [8]	Excretion [9]	Bioavailability (in vivo)	further results
Cc1ncc2n1-c1ccc(Cl)cc1C(c1ccccc1F)=NC2 [Midazolam]	1.8 to 6.4 h	–	–	–	Excretion (in vivo): Renal; Metabolism (in vivo): Hepatic; Bioavailability (in vivo, im): I.M. 90%+; Bioavailability (in vivo, po): Oral ~36%; Time to Clinical Onset ([1]; Buccal): 5 to 8 min; Time to Clinical Onset ([1]; Intramuscular): 1 to 5 min; Time to Clinical Onset ([1]; Intravenous): 1 to 5 min
O=C1CN=C(c2ccccc2)c2cc([N+](=O)[O-])ccc2N1 [Nitrazepam]	20 to 40 h	Hepatic	–	–	Excretion (in vivo): Renal
NC(=O)N1c2ccccc2CC(=O)c2ccccc21 [Oxcarbazepine]	–	–	–	>95%	Half life (healthy adults): 1 to 5 h (healthy adults)
CCC1(C)OC(=O)N(C)C1=O (centres unmarked) [Paramethadione]	–	–	–	–	Protein binding (in words) [3]: Not significant
NC(=O)NC(=O)Cc1ccccc1 [Phenacemide]	22 to 25 h	–	–	–	–
CCC1(c2ccccc2)C(=O)NC(=O)NC1=O [Phenobarbital]	53 to 118 h	–	–	>95%	Excretion (in vivo): Renal and fecal; Plasma concentration during long term therapy ([2]; adults, per daily dose of 1 mg/kg): about 10 μg/ml
CN1C(=O)CC(c2ccccc2)C1=O (centres unmarked) [Phensuximide]	–	–	–	–	Activity against maximal electroshock seizures [4]: more active against maximal electroshock seizures
O=C1NC(=O)C(c2ccccc2)(c2ccccc2)N1 [Phenytoin, Diphenylhydantoin]	22 h	hepatic	Primarily through the bile	–	Bioavailability (oral): 70-100%; Bioavailability (rectal and intravenous administration): 24.4%; Concentration at which toxic effects such as nystagmus develop ([2]; in vivo): around 20 μg/ml; Therapeutic (plasma) concentration for control of seizures ([2]; in vivo): above 10 μg/ml
CC(C)C[C@H](CN)CC(=O)O [Pregabalin]	5 to 6.5 h	Negligible	Renal	≧90%	–
CCC1(c2ccccc2)C(=O)NCNC1=O [Primidone]	Primidone: 5-15 hours,	Hepatic	Renal	>90%	Plasma concentration of the drug during long term therapy ([2]; per daily dose of 1 mg/kg): about 1 μg/ml
NC(=O)CCC/N=C(\c1ccc(Cl)cc1)c1cc(F)ccc1O [Progabide]	4 h	Hepatic	Renal	0.6	–
NS(=O)(=O)c1ccc(N2CCCCS2(=O)=O)cc1 [Sultiame]	24 hour hours	Hepatic secretion	Fecal (10%) and renal (90%)	–	Bioavailability (oral): 100% (oral)
Cc1ccsc1C(=CCCN1CCC[C@@H](C(=O)O)C1)c1sccc1C [Tiagabine]	7 to 9 h	Hepatic (CYP450 system)	Fecal and renal	–	–
CC1(C)O[C@@H]2[C@@H](CO[C@@]3(COS(N)(=O)=O)OC(C)(C)O[C@@H]23)O1 [Topiramate, 2,3:4,5-bis-O-(1-methylethylidene)-beta-D-fructopyranose sulfamate]	19 to 23 h	–	–	–	Metabolism, hepatic share (in vivo): 30%
CCC(C)C(CC)C(N)=O (centres unmarked) [Valnoctamide]	10 h	Hepatic	–	94%[1]	–
C=CC(N)CCC(=O)O (centres unmarked) [Vigabatrin]	–	Almost no metabolic transformation occurs	Renal	80-90%	Half life (the elderly): 12 to 13 h; Half life (young adults): 5 to 8 h
NS(=O)(=O)Cc1noc2ccccc12 [Zonisamide, 1,2-benzisoxazole-3-methanesulfonamide]	–	Hepatic	Renal	–	Effect on sodium channels (sodium channels): blocks sodium channels; Effect on T-type Ca2+ currents (T-type Ca^2+ currents): reduces voltage-dependent, transient inward currents; Binding to GABA/benzodiazepine receptor ionophore complex [5]: binds to the GABA/benzodiazepine receptor ionophore complex in an allosteric fashion; Chloride flux [5]: does not produce changes in chloride flux; Synaptically-driven electrical activity [6]: suppresses synaptically-driven electrical activity; Postsynaptic GABA or glutamate responses ([6]; cultured mouse spinal cord neurons): without affecting; Neuronal or glial uptake of [3H]-GABA (rat hippocampal slices): without affecting; Dopaminergic and serotonergic neurotransmission [7]: facilitates both dopaminergic and serotonergic neurotransmission; Effective doses in controlled trials (partial seizures): 100 to 600 mg/day; Half life (in red blood cells): 105 h; Carbonic anhydrase inhibiting activity (carbonic anhydrase): weak
